Reference: PubChem BioAssay (NCI)
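Five concentrations, 48 hours, 96-well plates. GI50 is the concentration that inhibits growth by half. TGI: total growth inhibition.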

Columns and labels:
Assay in all cases: NCI anticancer screen, dose series, 48 h
MDA-MB-435 = tested on: MDA-MB-435
MALME-3M melanoma = tested on: MALME-3M melanoma
HT29 colon = tested on: HT29 colon
SN12C renal = tested on: SN12C renal
HS 578T breast = tested on: HS 578T breast
HOP-62 NSCLC = tested on: HOP-62 NSCLC
786-0 renal = tested on: 786-0 renal
HCC-2998 colon = tested on: HCC-2998 colon
CAKI-1 renal = tested on: CAKI-1 renal
A549 NSCLC = tested on: A549 NSCLC
MDA-MB-231 breast = tested on: MDA-MB-231 breast
A498 renal = tested on: A498 renal
SK-MEL-2 melanoma = tested on: SK-MEL-2 melanoma
OVCAR-8 ovarian = tested on: OVCAR-8 ovarian
TK-10 renal = tested on: TK-10 renal
LOX IMVI melanoma = tested on: LOX IMVI melanoma
BT-549 breast = tested on: BT-549 breast
OVCAR-5 ovarian = tested on: OVCAR-5 ovarian
SK-MEL-28 melanoma = tested on: SK-MEL-28 melanoma
NCI-H460 lung = tested on: NCI-H460 lung
SF-295 CNS = tested on: SF-295 CNS
UACC-257 melanoma = tested on: UACC-257 melanoma
CCRF-CEM leukemia = tested on: CCRF-CEM leukemia
PC-3 prostate = tested on: PC-3 prostate
K-562 leukemia = tested on: K-562 leukemia
SK-OV-3 ovarian = tested on: SK-OV-3 ovarian
OVCAR-3 ovarian = tested on: OVCAR-3 ovarian
UACC-62 melanoma = tested on: UACC-62 melanoma
SNB-75 CNS = tested on: SNB-75 CNS
KM12 colon = tested on: KM12 colon
HL-60(TB) leukemia = tested on: HL-60(TB) leukemia
NCI/ADR-RES ovarian = tested on: NCI/ADR-RES ovarian
ACHN renal = tested on: ACHN renal
RPMI-8226 leukemia = tested on: RPMI-8226 leukemia
OVCAR-4 ovarian = tested on: OVCAR-4 ovarian
NCI-H226 lung = tested on: NCI-H226 lung
NCI-H23 lung = tested on: NCI-H23 lung
HCT-15 colon = tested on: HCT-15 colon
DU-145 prostate = tested on: DU-145 prostate
EKVX NSCLC = tested on: EKVX NSCLC
SK-MEL-5 melanoma = tested on: SK-MEL-5 melanoma
U251 CNS = tested on: U251 CNS
UO-31 renal = tested on: UO-31 renal
IGROV1 ovarian = tested on: IGROV1 ovarian
M14 melanoma = tested on: M14 melanoma
HOP-92 NSCLC = tested on: HOP-92 NSCLC
SF-539 CNS = tested on: SF-539 CNS
SF-268 CNS = tested on: SF-268 CNS
NCI-H522 lung = tested on: NCI-H522 lung
MOLT-4 leukemia = tested on: MOLT-4 leukemia
COLO 205 colon = tested on: COLO 205 colon
RXF 393 renal = tested on: RXF 393 renal
HCT-116 colon = tested on: HCT-116 colon
SNB-19 CNS = tested on: SNB-19 CNS
SW-620 colon = tested on: SW-620 colon

## C=C1CC2(OC1=O)C(=O)N(C)c1ccc(I)cc12 (centres undefined)
MDA-MB-435
  GI50: 1570 nM
  TGI: 5490 nM
MALME-3M melanoma
  GI50: 272 nM
  TGI: 1930 nM
HT29 colon
  GI50: 1030 nM
SN12C renal
  GI50: 1710 nM
  TGI: 4020 nM
HS 578T breast
  GI50: 3260 nM
  TGI: > 22700 nM
HOP-62 NSCLC
  GI50: 12900 nM
  TGI: 27700 nM
786-0 renal
  GI50: 1650 nM
  TGI: 3180 nM
HCC-2998 colon
  GI50: 2690 nM
  TGI: 7040 nM
CAKI-1 renal
  GI50: 836 nM
  TGI: 2790 nM
A549 NSCLC
  GI50: 6230 nM
  TGI: 22500 nM
MDA-MB-231 breast
  GI50: 1810 nM
  TGI: 5310 nM
A498 renal
  GI50: 2500 nM
  TGI: 10200 nM
SK-MEL-2 melanoma
  GI50: 2160 nM
  TGI: 6280 nM
OVCAR-8 ovarian
  GI50: 1760 nM
  TGI: 4900 nM
TK-10 renal
  GI50: 1440 nM
  TGI: 3170 nM
LOX IMVI melanoma
  GI50: 1140 nM
  TGI: 2520 nM
BT-549 breast
  GI50: 1560 nM
  TGI: 4190 nM
OVCAR-5 ovarian
  GI50: 2130 nM
  TGI: 4840 nM
SK-MEL-28 melanoma
  GI50: 1730 nM
  TGI: 3600 nM
NCI-H460 lung
  GI50: 2750 nM
  TGI: 11100 nM
SF-295 CNS
  GI50: 2300 nM
  TGI: 8160 nM
UACC-257 melanoma
  GI50: 909 nM
  TGI: 2490 nM
CCRF-CEM leukemia
  GI50: 1060 nM
  TGI: > 100000 nM
PC-3 prostate
  GI50: 2290 nM
  TGI: 7860 nM
K-562 leukemia
  GI50: 1310 nM
  TGI: > 23700 nM
SK-OV-3 ovarian
  GI50: 9950 nM
  TGI: 22500 nM
OVCAR-3 ovarian
  GI50: 422 nM
  TGI: 1430 nM
UACC-62 melanoma
  GI50: 1250 nM
  TGI: 2690 nM
SNB-75 CNS
  GI50: 3690 nM
  TGI: 12700 nM
KM12 colon
  GI50: 3370 nM
  TGI: 8550 nM
HL-60(TB) leukemia
  GI50: 337 nM
  TGI: 1540 nM
NCI/ADR-RES ovarian
  GI50: 1850 nM
  TGI: 4680 nM
ACHN renal
  GI50: 624 nM
  TGI: 1830 nM
RPMI-8226 leukemia
  GI50: 558 nM
  TGI: 2530 nM
OVCAR-4 ovarian
  GI50: 1270 nM
  TGI: 5430 nM
NCI-H226 lung
  GI50: 2310 nM
  TGI: 9900 nM
NCI-H23 lung
  GI50: 1740 nM
  TGI: 4580 nM
HCT-15 colon
  GI50: 583 nM
  TGI: 1970 nM
DU-145 prostate
  GI50: 941 nM
  TGI: 2270 nM
EKVX NSCLC
  GI50: 1660 nM
  TGI: 8150 nM
SK-MEL-5 melanoma
  GI50: 2260 nM
  TGI: 6370 nM
U251 CNS
  GI50: 1810 nM
  TGI: 5210 nM
UO-31 renal
  GI50: 622 nM
  TGI: 2030 nM
IGROV1 ovarian
  GI50: 1230 nM
  TGI: 4560 nM
M14 melanoma
  GI50: 1490 nM
  TGI: 3030 nM
HOP-92 NSCLC
  GI50: 659 nM
  TGI: 2690 nM
SF-539 CNS
  GI50: 1380 nM
  TGI: 2800 nM
SF-268 CNS
  GI50: 2010 nM
  TGI: 5010 nM
NCI-H522 lung
  GI50: 444 nM
  TGI: 1800 nM
MOLT-4 leukemia
  GI50: 548 nM
  TGI: 3450 nM
COLO 205 colon
  GI50: 841 nM
  TGI: 2170 nM
RXF 393 renal
  GI50: 481 nM
  TGI: 1180 nM
HCT-116 colon
  GI50: 348 nM
  TGI: 1420 nM
SNB-19 CNS
  GI50: 6980 nM
  TGI: 20200 nM
SW-620 colon
  GI50: 566 nM
  TGI: 2040 nM
